Source: ChEMBL document CHEMBL1201862, “PubChem BioAssay data set” (2004)
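Grown in 96-well plates, cells were treated for 48 hours with each compound at five concentrations. Insufficient inhibition: endpoint recorded as highest concentration tested. GI50 is the concentration that inhibits growth by half.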 The source made the active and inactive calls. No stated cut-off is given here; in the data, active = GI50 up to about 1.1 µM and inactive = higher.

How the values were obtained:
Assay in all cases: NCI-60 cell line screen, 48 h
[1] = system: Malme-3M
[2] = system: TK-10
[3] = system: RXF 393
[4] = system: SNB-19
[5] = system: UACC-257
[6] = system: COLO 205
[7] = system: BT-549
[8] = system: MDA-N
[9] = system: UACC-62
[10] = system: PC-3
[11] = system: KM12
[12] = system: SW-620
[13] = system: NCI-H460
[14] = system: SF-295
[15] = system: K562
[16] = system: HT-29
[17] = system: HOP-92
[18] = system: SF-268
[19] = system: SR
[20] = system: SNB-75

SMILES	GI50 [1]	GI50 [2]	GI50 [3]	GI50 [4]	GI50 [5]	GI50 [6]	GI50 [7]	GI50 [8]	GI50 [9]	GI50 [10]	GI50 [11]	GI50 [12]	GI50 [13]	GI50 [14]	GI50 [15]	GI50 [16]	GI50 [17]	GI50 [18]	GI50 [19]	GI50 [20]
c1cc(Sc2nc(Sc3ccncc3)nc(Sc3ccncc3)n2)ccn1	> 100 µM (inactive)	> 100 µM (inactive)	> 100 µM (inactive)	> 100 µM (inactive)	> 100 µM (inactive)	> 100 µM (inactive)	> 100 µM (inactive)	> 100 µM (inactive)	> 100 µM (inactive)	> 100 µM (inactive)	> 100 µM (inactive)	> 100 µM (inactive)	> 100 µM (inactive)	> 100 µM (inactive)	> 100 µM (inactive)	> 100 µM (inactive)	> 100 µM (inactive)	> 100 µM (inactive)		
COc1ccccc1Cn1c2c(c3cc(O)ccc31)C(=O)c1ccccc1C2=O	> 100 µM (inactive)	72.8 µM (inactive)	2.6 µM (inactive)	27.1 µM (inactive)	> 100 µM (inactive)	61.9 µM (inactive)	> 100 µM (inactive)	> 100 µM (inactive)	17 µM (inactive)	8.49 µM (inactive)	70.6 µM (inactive)	79.4 µM (inactive)	26.2 µM (inactive)	11.2 µM (inactive)	> 100 µM (inactive)	> 100 µM (inactive)		19.7 µM (inactive)	52.8 µM (inactive)	19.2 µM (inactive)
COc1ccc(-c2nc(-c3cc4ccccc4oc3=O)cs2)cc1	> 100 µM (inactive)	70.6 µM (inactive)	85.3 µM (inactive)	30.1 µM (inactive)	> 100 µM (inactive)	> 100 µM (inactive)	> 100 µM (inactive)		> 100 µM (inactive)	> 100 µM (inactive)	> 100 µM (inactive)	> 100 µM (inactive)	59.2 µM (inactive)	> 100 µM (inactive)	> 100 µM (inactive)	95.9 µM (inactive)	60.8 µM (inactive)	61.2 µM (inactive)	> 100 µM (inactive)	52.2 µM (inactive)
CC1C2CC(CC(=O)N2)C1(C)C (stereo not drawn)	> 100 µM (inactive)	> 100 µM (inactive)	> 100 µM (inactive)	> 100 µM (inactive)	> 100 µM (inactive)	> 100 µM (inactive)	> 100 µM (inactive)	> 100 µM (inactive)	> 100 µM (inactive)	> 100 µM (inactive)	> 100 µM (inactive)	> 100 µM (inactive)	> 100 µM (inactive)	> 100 µM (inactive)	> 100 µM (inactive)	> 100 µM (inactive)	> 100 µM (inactive)	> 100 µM (inactive)		> 100 µM (inactive)
O=C(N/N=C(COc1ccccc1Cl)\N=C\c1cccnc1)c1ccncc1	> 100 µM (inactive)	> 100 µM (inactive)	> 100 µM (inactive)	> 100 µM (inactive)	> 100 µM (inactive)	> 100 µM (inactive)	> 100 µM (inactive)	> 100 µM (inactive)	> 100 µM (inactive)	> 100 µM (inactive)	> 100 µM (inactive)	> 100 µM (inactive)	> 100 µM (inactive)	> 100 µM (inactive)	> 100 µM (inactive)	> 100 µM (inactive)		> 100 µM (inactive)		> 100 µM (inactive)
CN(C)C(=O)O/N=C1/C(=C2/C(=O)Nc3ccccc32)Nc2ccccc21	4.25 µM (inactive)	17.4 µM (inactive)	1.57 µM (inactive)	10.9 µM (inactive)	27.2 µM (inactive)	> 100 µM (inactive)	13.4 µM (inactive)	46.2 µM (inactive)	16.1 µM (inactive)		0.304 µM (active)	53.7 µM (inactive)	7.96 µM (inactive)	19.1 µM (inactive)	27.7 µM (inactive)	38.8 µM (inactive)	6.21 µM (inactive)	6.68 µM (inactive)	4.89 µM (inactive)	2.45 µM (inactive)
O=C(CSc1nc2ccc([N+](=O)[O-])cc2s1)c1ccc2ccccc2c1	> 100 µM (inactive)	54.2 µM (inactive)	> 100 µM (inactive)	50.2 µM (inactive)	> 100 µM (inactive)	> 100 µM (inactive)	> 100 µM (inactive)	> 100 µM (inactive)	> 100 µM (inactive)	88.1 µM (inactive)	> 100 µM (inactive)	> 100 µM (inactive)	> 100 µM (inactive)	93.1 µM (inactive)	84.9 µM (inactive)	> 100 µM (inactive)	57.7 µM (inactive)	> 100 µM (inactive)		> 100 µM (inactive)
COc1ccc2nc(-c3ccc(O)cc3)sc2c1	23.5 µM (inactive)	34.7 µM (inactive)	20.1 µM (inactive)	34.7 µM (inactive)	21.6 µM (inactive)	21.5 µM (inactive)	18.7 µM (inactive)	22.5 µM (inactive)	21.7 µM (inactive)	18.5 µM (inactive)	26.5 µM (inactive)	21.8 µM (inactive)	39.3 µM (inactive)	19.8 µM (inactive)	36.2 µM (inactive)	20 µM (inactive)		21.1 µM (inactive)	4.86 µM (inactive)	
CCOC(=O)c1c(N2CCOCC2)[nH]c(=O)c(C(c2c(Cl)cccc2Cl)c2c(O)c(C(=O)OCC)c(N3CCOCC3)[nH]c2=O)c1O	2.49 µM (inactive)	4.66 µM (inactive)	2.19 µM (inactive)	7.45 µM (inactive)	5.58 µM (inactive)	4.34 µM (inactive)	7.76 µM (inactive)		6.9 µM (inactive)	15.5 µM (inactive)	16.9 µM (inactive)	1.7 µM (inactive)	21.4 µM (inactive)	16 µM (inactive)	2.3 µM (inactive)	3.56 µM (inactive)	2.09 µM (inactive)	8.22 µM (inactive)	3.97 µM (inactive)	6.7 µM (inactive)
N#Cc1c2c(c(N)oc1=O)C(c1ccccc1)CC(=O)N2 (stereo not drawn)	> 100 µM (inactive)	> 100 µM (inactive)	> 100 µM (inactive)	> 100 µM (inactive)	> 100 µM (inactive)	> 100 µM (inactive)	> 100 µM (inactive)	> 100 µM (inactive)	> 100 µM (inactive)	> 100 µM (inactive)	> 100 µM (inactive)	> 100 µM (inactive)	> 100 µM (inactive)	> 100 µM (inactive)	> 100 µM (inactive)	> 100 µM (inactive)	> 100 µM (inactive)	> 100 µM (inactive)		> 100 µM (inactive)
COC(=O)[C@@H](N1C(=O)c2ccccc2C1=O)C1(C)CC(Cl)=NO1 (stereo partly drawn)	> 100 µM (inactive)	31.1 µM (inactive)	41.5 µM (inactive)	24.8 µM (inactive)	> 100 µM (inactive)	> 100 µM (inactive)	42.7 µM (inactive)	> 100 µM (inactive)	> 100 µM (inactive)	> 100 µM (inactive)	> 100 µM (inactive)	> 100 µM (inactive)	> 100 µM (inactive)	28.1 µM (inactive)	> 100 µM (inactive)	> 100 µM (inactive)		29.3 µM (inactive)		17.8 µM (inactive)
COc1ccc(-c2nc3ccccc3c(=S)n2OC(C)=O)cc1	4.76 µM (inactive)	> 25 µM (inactive)	8.75 µM (inactive)	21.1 µM (inactive)	13.1 µM (inactive)	2.38 µM (inactive)	8.57 µM (inactive)	12 µM (inactive)	2.8 µM (inactive)	1.29 µM (inactive)	1.64 µM (inactive)	4.63 µM (inactive)	1.05 µM (active)	2.25 µM (inactive)	0.836 µM (active)	2.55 µM (inactive)	> 25 µM (inactive)	2.99 µM (inactive)		6.84 µM (inactive)
C=C1C[C@H]2C=Nc3cc(OCCCOc4cc5c(cc4OC)C(=O)N4CC(=C)C[C@H]4C=N5)c(OC)cc3C(=O)N2C1 [SJG-136]	0.0109 µM (active)	0.0316 µM (active)	< 0.0107 µM (active)	< 0.01 µM (active)	0.0146 µM (active)	< 0.01 µM (active)	0.0111 µM (active)	0.0143 µM (active)	< 0.01 µM (active)		0.0124 µM (active)	0.0123 µM (active)	< 0.01 µM (active)	< 0.01 µM (active)	< 0.01 µM (active)	0.0147 µM (active)	0.00682 µM (active)	0.000832 µM (active)	< 0.01 µM (active)	< 0.01 µM (active)
COC(=O)C(C(=O)C(=O)NC1Nc2ccc(C)cc2S1)c1nc2ccc(Cl)cc2nc1O (stereo not drawn)	> 100 µM (inactive)	> 100 µM (inactive)	> 100 µM (inactive)	96.4 µM (inactive)	> 100 µM (inactive)		> 100 µM (inactive)	> 100 µM (inactive)	> 100 µM (inactive)	> 100 µM (inactive)	> 100 µM (inactive)	> 100 µM (inactive)	> 100 µM (inactive)	> 100 µM (inactive)	> 100 µM (inactive)	> 100 µM (inactive)	82.4 µM (inactive)	> 100 µM (inactive)		> 100 µM (inactive)
Cc1ccc(NC(=O)/C=C/c2ccccc2)c(C)c1	86.9 µM (inactive)	> 100 µM (inactive)		> 100 µM (inactive)	> 100 µM (inactive)	> 100 µM (inactive)	> 100 µM (inactive)	> 100 µM (inactive)	> 100 µM (inactive)	> 100 µM (inactive)	> 100 µM (inactive)	> 100 µM (inactive)	> 100 µM (inactive)		> 100 µM (inactive)	> 100 µM (inactive)		52 µM (inactive)	> 100 µM (inactive)	24.9 µM (inactive)
